Measurements from patent publication US12071441B2, “10-(di(phenyl)methyl)-4-hydroxy-8,9,9A,10-tetrahydro-7H-pyrrolo[1′,2′:4,5]pyrazino[1,2-b]pyridazine-3,5-dione derivatives and related compounds as inhibitors of the orthomyxovirus replication for treating influenza” (Novartis AG, priority 2018, dated 2024).

How the values were obtained:
Assay in all cases: microbe, parasite or virus in culture
Format in all cases: cell-based
[1] = tested on: influenza A virus minigenome (PB2, PB1, PA, NP; luciferase reporter) in 293T cells, RNP_Alaska; conditions: HEK-293T, 48 h
[2] = tested on: influenza A virus minigenome (PB2, PB1, PA, NP; luciferase reporter) in 293T cells, RNP_Hubei; conditions: HEK-293T, 48 h
[3] = tested on: influenza A virus minigenome (PB2, PB1, PA, NP; luciferase reporter) in 293T cells, RNP_CAL; conditions: HEK-293T, 48 h, read-out: RNP_CAL_EC50

Compound	EC50 [1] [nM]	EC50 [2] [nM]	EC50 [3] [nM]
CCOC(=O)OC(C)Oc1c2n(ncc1=O)[C@@H]([C@H](c1ccccc1)c1cccc(F)c1F)[C@H]1CCCN1C2=O (stereo partly drawn) [Example 56, 1-(((9aR,10S)-10-((R)-(2,3-difluorophenyl)(phenyl)methyl)-3,5-dioxo-3,5,8,9,9a,10-hexahydro-7H-pyrrolo[1′,2′:4,5]pyrazino[1,2-b]pyridazin-4-yl)oxy)ethyl ethyl carbonate]	100 to 1000	< 100	100 to 1000
CN(C)C(=O)OCOc1c2n(ncc1=O)[C@@H]([C@H](c1ccccc1)c1cccc(F)c1F)[C@H]1CCCN1C2=O [Example 57, (((9aR,10S)-10-((R)-(2,3-difluorophenyl)(phenyl)methyl)-3,5-dioxo-3,5,8,9,9a,10-hexahydro-7H-pyrrolo[1′,2′:4,5]pyrazino[1,2-b]pyridazin-4-yl)oxy)methyl dimethylcarbamate]	< 100	< 100	< 100
CC(=O)Oc1c2n(ncc1=O)[C@@H]([C@H](c1ccccc1)c1cccc(F)c1F)[C@H]1CCCN1C2=O [Example 58, (9aR,10S)-10-((R)-(2,3-difluorophenyl)(phenyl)methyl)-3,5-dioxo-3,5,8,9,9a,10-hexahydro-7H-pyrrolo[1′,2′:4,5]pyrazino[1,2-b]pyridazin-4-yl acetate]	< 100	< 100	< 100
CCC(=O)Oc1c2n(ncc1=O)[C@@H]([C@H](c1ccccc1)c1cccc(F)c1F)[C@H]1CCCN1C2=O [Example 59, (9aR,10S)-10-((R)-(2,3-difluorophenyl)(phenyl)methyl)-3,5-dioxo-3,5,8,9,9a,10-hexahydro-7H-pyrrolo[1′,2′:4,5]pyrazino[1,2-b]pyridazin-4-yl propionate]	< 100	< 100	< 100
CC(C)CC(=O)Oc1c2n(ncc1=O)[C@@H]([C@H](c1ccccc1)c1cccc(F)c1F)[C@H]1CCCN1C2=O [Example 60, (9aR,10S)-10-((R)-(2,3-difluorophenyl)(phenyl)methyl)-3,5-dioxo-3,5,8,9,9a,10-hexahydro-7H-pyrrolo[1′,2′:4,5]pyrazino[1,2-b]pyridazin-4-yl 3-methylbutanoate]	< 100	< 100	< 100
COCCC(=O)Oc1c2n(ncc1=O)[C@@H]([C@H](c1ccccc1)c1cccc(F)c1F)[C@H]1CCCN1C2=O [Example 61, (9aR,10S)-10-((R)-(2,3-difluorophenyl)(phenyl)methyl)-3,5-dioxo-3,5,8,9,9a,10-hexahydro-7H-pyrrolo[1′,2′:4,5]pyrazino[1,2-b]pyridazin-4-yl 3-methoxypropanoate]	< 100	< 100	< 100
CC(C)(C)C(=O)Oc1c2n(ncc1=O)[C@@H]([C@H](c1ccccc1)c1cccc(F)c1F)[C@H]1CCCN1C2=O [Example 62, (9aR,10S)-10-((R)-(2,3-difluorophenyl)(phenyl)methyl)-3,5-dioxo-3,5,8,9,9a,10-hexahydro-7H-pyrrolo[1′,2′:4,5]pyrazino[1,2-b]pyridazin-4-yl pivalate]	< 100	< 100	< 100
CC(C)(C)C(=O)OCOc1c2n(ncc1=O)[C@@H]([C@H](c1ccccc1)c1cccc(F)c1F)[C@H]1CCCN1C2=O [Example 63, (((9aR,10S)-10-((R)-(2,3-difluorophenyl)(phenyl)methyl)-3,5-dioxo-3,5,8,9,9a,10-hexahydro-7H-pyrrolo[1′,2′:4,5]pyrazino[1,2-b]pyridazin-4-yl)oxy)methyl pivalate]	< 100	< 100	< 100
CCN(CC)C(=O)OCOc1c2n(ncc1=O)[C@@H]([C@H](c1ccccc1)c1cccc(F)c1F)[C@H]1CCCN1C2=O [Example 67, (((9aR,10S)-10-((R)-(2,3-difluorophenyl)(phenyl)methyl)-3,5-dioxo-3,5,8,9,9a,10-hexahydro-7H-pyrrolo[1′,2′:4,5]pyrazino[1,2-b]pyridazin-4-yl)oxy)methyl diethylcarbamate]	≥ 1000	≥ 1000	≥ 1000
CCN(C)C(=O)OCOc1c2n(ncc1=O)[C@@H]([C@H](c1ccccc1)c1cccc(F)c1F)[C@H]1CCCN1C2=O [Example 68, (((9aR,10S)-10-((R)-(2,3-difluorophenyl)(phenyl)methyl)-3,5-dioxo-3,5,8,9,9a,10-hexahydro-7H-pyrrolo[1′,2′:4,5]pyrazino[1,2-b]pyridazin-4-yl)oxy)methyl ethyl(methyl)carbamate]	≥ 1000	≥ 1000	≥ 1000
O=C(Oc1c2n(ncc1=O)[C@@H]([C@H](c1ccccc1)c1cccc(F)c1F)[C@H]1CCCN1C2=O)c1ccccc1 [Example 69, (9aR,10S)-10-((R)-(2,3-difluorophenyl)(phenyl)methyl)-3,5-dioxo-3,5,8,9,9a,10-hexahydro-7H-pyrrolo[1′,2′:4,5]pyrazino[1,2-b]pyridazin-4-yl benzoate]	< 100	< 100	< 100
COC(=O)c1ccccc1C(=O)Oc1c2n(ncc1=O)[C@@H]([C@H](c1ccccc1)c1cccc(F)c1F)[C@H]1CCCN1C2=O [Example 70, (9aR,10S)-10-((R)-(2,3-difluorophenyl)(phenyl)methyl)-3,5-dioxo-3,5,8,9,9a,10-hexahydro-7H-pyrrolo[1′,2′:4,5]pyrazino[1,2-b]pyridazin-4-yl methyl phthalate]	< 100	< 100	< 100
CCN(CC)C(=O)Oc1c2n(ncc1=O)[C@@H]([C@H](c1ccccc1)c1cccc(F)c1F)[C@H]1CCCN1C2=O [Example 71, (9aR,10S)-10-((R)-(2,3-difluorophenyl)(phenyl)methyl)-3,5-dioxo-3,5,8,9,9a,10-hexahydro-7H-pyrrolo[1′,2′:4,5]pyrazino[1,2-b]pyridazin-4-yl diethylcarbamate]	100 to 1000	100 to 1000	100 to 1000
CC(C)CC(=O)OCOc1c2n(ncc1=O)[C@@H]([C@H](c1ccccc1)c1cccc(F)c1F)[C@H]1CCCN1C2=O [Example 72, (((9aR,10S)-10-((R)-(2,3-difluorophenyl)(phenyl)methyl)-3,5-dioxo-3,5,8,9,9a,10-hexahydro-7H-pyrrolo[1′,2′:4,5]pyrazino[1,2-b]pyridazin-4-yl)oxy)methyl 3-methylbutanoate]	< 100	< 100	< 100
O=C(CC1CCOCC1)Oc1c2n(ncc1=O)[C@@H]([C@H](c1ccccc1)c1cccc(F)c1F)[C@H]1CCCN1C2=O [Example 73, (9aR,10S)-10-((R)-(2,3-difluorophenyl)(phenyl)methyl)-3,5-dioxo-3,5,8,9,9a,10-hexahydro-7H-pyrrolo[1′,2′:4,5]pyrazino[1,2-b]pyridazin-4-yl 2-(tetrahydro-2H-pyran-4-yl)acetate]	< 100	< 100	< 100
O=C(Oc1c2n(ncc1=O)[C@@H]([C@H](c1ccccc1)c1cccc(F)c1F)[C@H]1CCCN1C2=O)OC1CCOCC1 [Example 74, (9aR,10S)-10-((R)-(2,3-difluorophenyl)(phenyl)methyl)-3,5-dioxo-3,5,8,9,9a,10-hexahydro-7H-pyrrolo[1′,2′:4,5]pyrazino[1,2-b]pyridazin-4-yl (tetrahydro-2H-pyran-4-yl) carbonate]	< 100	< 100	< 100
O=C(Oc1c2n(ncc1=O)[C@@H]([C@H](c1ccccc1)c1cccc(F)c1F)[C@H]1CCCN1C2=O)C1CCOCC1 [Example 75, (9aR,10S)-10-((R)-(2,3-difluorophenyl)(phenyl)methyl)-3,5-dioxo-3,5,8,9,9a,10-hexahydro-7H-pyrrolo[1′,2′:4,5]pyrazino[1,2-b]pyridazin-4-yl tetrahydro-2H-pyran-4-carboxylate]	< 100	< 100	< 100
CC(=O)OCOc1c2n(ncc1=O)[C@@H]([C@H](c1ccccc1)c1cccc(F)c1F)[C@H]1CCCN1C2=O [Example 76, (((9aR,10S)-10-((R)-(2,3-difluorophenyl)(phenyl)methyl)-3,5-dioxo-3,5,8,9,9a,10-hexahydro-7H-pyrrolo[1′,2′:4,5]pyrazino[1,2-b]pyridazin-4-yl)oxy)methyl acetate]	< 100	< 100	< 100
CCC(=O)OCOc1c2n(ncc1=O)[C@@H]([C@H](c1ccccc1)c1cccc(F)c1F)[C@H]1CCCN1C2=O [Example 77, (((9aR,10S)-10-((R)-(2,3-difluorophenyl)(phenyl)methyl)-3,5-dioxo-3,5,8,9,9a,10-hexahydro-7H-pyrrolo[1′,2′:4,5]pyrazino[1,2-b]pyridazin-4-yl)oxy)methyl propionate]	< 100	< 100	< 100
Cc1oc(=O)oc1COc1c2n(ncc1=O)[C@@H]([C@H](c1ccc(F)cc1)c1cccc(F)c1F)[C@H]1CCCN1C2=O [Example 80, (9aR,10S)-10-((R)-(2,3-difluorophenyl)(4-fluorophenyl)methyl)-4-((5-methyl-2-oxo-1,3-dioxol-4-yl)methoxy)-8,9,9a,10-tetrahydro-7H-pyrrolo[1′,2′:4,5]pyrazino[1,2-b]pyridazine-3,5-dione]	< 100	< 100	< 100
COC(=O)OCOc1c2n(ncc1=O)[C@@H]([C@H](c1ccc(F)cc1)c1cccc(F)c1F)[C@H]1CCCN1C2=O [Example 82, (((9aR,10S)-10-((R)-(2,3-difluorophenyl)(4-fluorophenyl)methyl)-3,5-dioxo-3,5,8,9,9a,10-hexahydro-7H-pyrrolo[1′,2′:4,5]pyrazino[1,2-b]pyridazin-4-yl)oxy)methyl methyl carbonate]	< 100	< 100	< 100
